In paper PMC4684755 (ACS chemical biology, 2015):

Tests used:
ORAS = ORAS (Neurospora crassa, UniProt Q7S6N4); test: type III PKS assay, LC-HRMS; assay type: biochemical; conditions: pH 8.0, room temperature, overnight
PKS18 = PKS18 (Mycobacterium tuberculosis, UniProt P9WPF1)
CsyA = target: T1, CsyA (Aspergillus oryzae, UniProt Q53U85); test: type III PKS assay, LC-HRMS; assay type: biochemical; conditions: malonyl-CoA 2 mM, pH 8.0, room temperature, overnight
T1 sequence (Q53U85 1-402): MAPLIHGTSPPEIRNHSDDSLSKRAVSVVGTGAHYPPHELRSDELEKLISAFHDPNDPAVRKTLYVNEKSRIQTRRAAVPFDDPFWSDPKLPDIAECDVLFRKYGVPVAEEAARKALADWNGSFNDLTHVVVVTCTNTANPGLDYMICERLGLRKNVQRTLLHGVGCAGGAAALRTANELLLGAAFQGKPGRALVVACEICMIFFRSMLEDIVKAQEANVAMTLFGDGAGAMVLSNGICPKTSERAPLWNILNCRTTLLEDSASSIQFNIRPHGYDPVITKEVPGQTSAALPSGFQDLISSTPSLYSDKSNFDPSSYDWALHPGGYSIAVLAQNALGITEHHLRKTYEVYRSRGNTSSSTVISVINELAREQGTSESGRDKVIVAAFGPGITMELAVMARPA

Sequence of PKS18 (P9WPF1 whole entry): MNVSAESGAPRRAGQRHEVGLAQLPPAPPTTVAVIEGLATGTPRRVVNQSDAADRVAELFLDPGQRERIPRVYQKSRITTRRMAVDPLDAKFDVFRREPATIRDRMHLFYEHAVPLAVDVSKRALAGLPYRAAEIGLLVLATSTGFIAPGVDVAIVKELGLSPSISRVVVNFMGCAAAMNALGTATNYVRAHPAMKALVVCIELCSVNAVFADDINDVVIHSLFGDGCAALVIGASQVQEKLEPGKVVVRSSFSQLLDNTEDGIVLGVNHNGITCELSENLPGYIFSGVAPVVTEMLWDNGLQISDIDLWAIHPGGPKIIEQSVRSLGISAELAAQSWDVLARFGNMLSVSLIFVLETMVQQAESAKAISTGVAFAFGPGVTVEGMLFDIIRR

SMILES	type III PKS assay, LC-HRMS (ORAS; malonyl-CoA 2 mM)	type III PKS assay, LC-HRMS (PKS18)	type III PKS assay, LC-HRMS (CsyA)	type III PKS assay, LC-HRMS (ORAS; lauryl-CoA 1 mM)
CCCCCCCCCCCC(=O)SCCNC(=O)CCNC(=O)[C@H](O)C(C)(C)COP(=O)(O)OP(=O)(O)OC[C@H]1O[C@@H](n2cnc3c(N)ncnc32)[C@H](O)[C@@H]1OP(=O)(O)O [lauryl-CoA]	enzymatic reactions containing lauryl-CoA, malonyl-CoA and the type III PKSs as positive controls	enzymatic reactions containing lauryl-CoA, malonyl-CoA and the type III PKSs as positive controls	enzymatic reactions containing lauryl-CoA, malonyl-CoA and the type III PKSs as positive controls	
CC(C)(COP(=O)(O)OP(=O)(O)OC[C@H]1O[C@@H](n2cnc3c(N)ncnc32)[C@H](O)[C@@H]1OP(=O)(O)O)[C@@H](O)C(=O)NCCC(=O)NCCSC(=O)CC(=O)O [malonyl-CoA]		enzymatic reactions containing lauryl-CoA, malonyl-CoA and the type III PKSs as positive controls		enzymatic reactions containing lauryl-CoA, malonyl-CoA and the type III PKSs as positive controls
